Test results published in US6469027B1, “N-methyl-D-aspartate (NMDA) receptor blockers for the prevention of atherosclerosis” (The Board of Regents of the University of Nebraska, priority 1996, dated 2002).

Legend:
c-myb [1] = experiment: c-myb expression in N-VSMC (RT-PCR, immunoprecipitation and western blot); type: cell-based, chicken
Method: (§1) FIGS. 3A, 3B and 3C are RNA blot analyses of c-fos and c-myb mRNA isolated from N-VSMC cultures. Cultures were incubated in the absence and presence of 200μM H[cys] for 0, (lane 1); 15 min, (lane 2); 30 min, (lane 3); 45 min, (lane 4) and 60 min, (lane 5); and analyzed for c-fos expression. In FIG. 3B, the time course of c-myb MRNA induction in the presence of 200μM H[cys] for 0 h, (lane 1); 8 h, (lane 2); 16 h, (lane 3); 24 h, (lane 4). The c-fos transcripts were analyzed by northern blot and normalized to β actin expression. The amount of c-myb mRNA levels were normalized to estrogen receptor (ER) transcripts as determined by RT-PCR. […] The amount of c-myb mRNA levels were normalized to estrogen receptor (ER) transcripts as determined by RT-PCR. The amount of specific radiolabeling in the autoradiograph was quantified by scanning densitometry. The size of the c-Myb protein is 75 kilodaltons. The 75 kilodalton band is defined as c-Myb because immunoprecipitation of this protein was not detected in the presence of synthetic polypeptide [[…] encoded by sequences 1080-1133].
FIG. 4 is a graph illustrating the analysis of c-myb synthesis in response to NMDA receptor antagonist, Mk-801 and CGS19755. Immunoprecipitation and western blotting of radiolabeled c-Myb from N-VSMC treated with 200μMH[cys] in the presence and absence of 50 μM Mk-801 or 1 mM CGS19755. Cell cultures were treated with and without H[cys] for 24 hours, extracts were immunoprecipitated with anti c-myb IgG and samples were separated by SDS-PAGE gels and western blotted. The amount of specific radiolabeling in the autoradiograph was quantified by scanning densitometry. The size of the c-Myb protein is 75 kilodaltons. The 75 kilodalton band is defined as c-Myb because immunoprecipitation of this protein was not detected in the presence of synthetic polypeptide [I13-[…] encoded by sequences 1080-1133].
RNA Blot Analysis: Total RNA was isolated from VSMC derived from thoracic and abdominal aorta by homogenization, and lysis with guanidinium isothiocyanate was followed by phenol-chloroform extraction. Ten micrograms of total RNA per lane was separated in a 1.5% agarose-formaldehyde gel, and the RNA was transferred by capillary transfer to a 0.45 μm nylon membrane. Filters were hybridized as previously with cDNAs labeled with [^32P]deoxycytidine5′-triphosphate to specific activities of approximately 2×10^9 cpm/μg using a random prime labeling kit (Boehringer Mannheim Biochemicals, Indianapolis, Ind.). The probes included chicken c-fos, Bactin, estrogen receptor (ER) and c myb.
Reverse Transcriptase-Polymerase Chain Reaction: Reverse transcription of 4 to 10,000 nanograms (ng) of RNA using 10 picomoles (pm) of hexamer primers was performed for 90 minutes (min) at 37° C. using 200 units superscript reverse transcriptase (Gibco BRL), in 50 mM Tris, pH, 8.2, 75 Mm KC1, 3 mM MgCl2, 10 mM dithiothreitol (DTT), 1 unit/μ1 RNasin (Promega), and 1 mM each of DATP, dCTP, dGTP, and dTTP. The samples were heated at 95° C. for 5 min to terminate the reverse transcription. The resulting cDNA was treated with 1 unit of […] at 37° C. for 20 min. A 5% fraction of the cDNA was subjected to PCR using c-myb upstream (5′ggTCCTTTgAAgATgCTgCC3′) and downstream(5′[…]gAgTCCgggTTg3′) primers; estrogen receptor (ER) (5′ggACTgCCAgCTgCCgATCTT3′) and (5′CTCACgAATgTggCgCCT3′) primers; β actin (5′AAgAggTAATCCTgACCCCTgAA3′) and (5′ACCCTgACCATCAgggAgTTCA3′) primers. PCR was performed using 0.25 μM of each primer, 3 μM cDNA, 0.2 mM of each deoxynucleotide triphosphate, 75 mM KC1, 1.5 mM MgCl2 and 0.5 unit Taq polymerase (Perkin Elmer; Cetus) in 10 mM Tris-HC1, pH 8.3 with total volume of 100 μl. […] PCR products were analyzed by electrophoresis in 1.5% agarose gels stained with ethidium bromide. PCR amplifications of all target templates and controls were run in parallel or on the same sample. […]

c-fos = c-fos mRNA in N-VSMC (RNA blot); type: cell-based, chicken
Method: as §1
RNA Blot Analysis: Total RNA was isolated from VSMC derived from thoracic and abdominal aorta by homogenization, and lysis with guanidinium isothiocyanate was followed by phenol-chloroform extraction. […]

protein kinase C = experiment: Distribution of protein kinase C activity in N-VSMC fractions; type: cell-based, chicken; details: 100 μM H[cys] for 60 min
Method: FIGS. 6A-6C show the distribution of protein kinase C in the presence of H[cys], TPA and TGF β1. […] Cells were harvested and separated into cytosol membrane particulate and nuclear fractions, and PKC activity measured as described in Material and Methods. The data are reported as the mean ± standard error of eight separate determinations. (B) Immunolocalization of PKC epsilon in M- and N-VSMC. Cell cultures were plated and grown for three days prior to immunohistochemistry staining of PKC epsilon in the N-VSM (bottom) contrasted with the low levels of expression of the enzyme in M-VSMC (top). The staining can be seen in cytosol, nucleus and associated with intracellular fibers. (C) Use of PKC epsilon IgG to detect enzyme in M- and N-VSMC by western blot. The C-lane represents purified recombinant PKC epsilon; M and N are samples derived from mesoderm (abdominal ) and neurocrest & (thoracic) smooth muscle cells, respectively.
Protein kinase C activity: Protein kinase C activity was determined using a method of a previously published procedure with modifications. Wrenn, R.W. et al. (supra). […] Each of these fractions was analyzed for total PKC activity in the presence and absence of calcium chloride as described previously. […]

Rabbit aortic cells = experiment: Mitogenesis in rabbit aortic cells; type: cell-based
Method: For each of the following experiments, aortic smooth muscle cells were obtained from 2-3 lb. New Zealand rabbits; these cells were cultured as described above, and evaluated for their responses to Hcy.

c-myb [2] = experiment: c-myb expression in TA-VSMCs; type: cell-based
[3] = neural crest derived smooth muscle cells

In the case of `N[C@@H](CCS)C(=O)O` [homocysteine], the “c-myb mRNA transcripts induced” value (c-myb [1]; 200 μM homocysteine) was 6 fold, the cMyb protein (c-myb [1]; 30 and 100 μM) was “dose dependent increase” and the c-myb induction (c-myb [1]; [3]) was “induced”. For the same molecule, the “c-fos mRNA transcripts induced” value (c-fos; 200 μM homocysteine) was 15 fold, the c-fos induction (c-fos; [3]) was “induced” and the “distribution of PKC activity” value (protein kinase C) was “significant increase in membrane-associated PKC”. The mitogenic response (Rabbit aortic cells) was “robust mitogenic response”, the c-myb synthesis (c-myb [2]) was “dose-dependent increase” and the “concentration of maximal effect on c-myb synthesis” value (c-myb [2]) was under 2.5 mM.
